Reference: patent publication US20260008760A1, “DIPEPTIDYL PEPTIDASE 1 INHIBITORS AND USES THEREOF” (Insmed Incorporated, priority 2024, published 2026)
“And” between values parts separate entries of the source, which are not always exact repeats. Identical values can stand only once.

Columns and labels:
active mouse DPP1 enzyme = target: T1, active mouse DPP1 enzyme (Mus musculus, UniProt P97821); assay: Mouse DPP1 Enzyme IC50 Assay; type: biochemical; conditions: active mouse DPP1 enzyme, H-Gly-Arg-AMC substrate, 10 minutes pre-incubation at 37° C., pH 5.5; average of n runs; read-out: Avg. IC50 (Mouse DPP1 enzyme IC50 value ranges)
T1 construct: Each subunit is composed of an N-terminal fragment, a heavy chain and a light chain; purchased R&D Systems
T1 sequence (P97821 25-134 limits assumed): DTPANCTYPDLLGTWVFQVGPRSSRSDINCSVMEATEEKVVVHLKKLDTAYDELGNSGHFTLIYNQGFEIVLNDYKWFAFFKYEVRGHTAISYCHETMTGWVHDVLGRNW
T1 sequence (P97821 231-393 limits assumed): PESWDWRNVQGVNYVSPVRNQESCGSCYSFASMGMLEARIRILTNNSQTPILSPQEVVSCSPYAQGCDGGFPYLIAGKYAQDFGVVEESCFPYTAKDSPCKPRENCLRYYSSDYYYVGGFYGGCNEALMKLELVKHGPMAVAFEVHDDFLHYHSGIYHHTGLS
T1 sequence (P97821 394-462 limits assumed): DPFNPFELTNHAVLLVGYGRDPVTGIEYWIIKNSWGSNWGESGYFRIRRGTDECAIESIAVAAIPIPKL
Protocol: Example 96: Mouse DPP1 Enzyme IC50 Assay
Test articles were applied to active mouse DPP1 enzyme (R&D Systems; Minneapolis, MN) in Assay Buffer (50 mM MES pH 5.5, 50 mM NaCl, 5 mM DTT) in a total reaction volume of 125 μL. 25 μL of compound in Assay Buffer plus […] was first added to 50 μL of active mouse DPP1 enzyme at a concentration of 62.5 pg/μL and allowed to pre-incubate for 10 minutes at 37° C. after which 50 μL of […] H-Gly-Arg-AMC substrate (Bachem; St. Torrance, CA) was added, giving final substrate concentration of 400 µM and a final DMSO concentration of […]. Substrate cleavage was measured for 90 minutes at 37° C., with fluorescence at Excitation/Emission 350/450 nm measured every 5 minutes. DPP1 concentration was interpolated based on its activity relative to a standard curve of recombinant active mouse DPP enzyme. IC50 values for each compound were calculated via the XLFit (IDBS Version 5.3.1.3) Add-On to Microsoft Excel using the four parameter fit equation y=(A+((B−A)/(1+((C/x)^D)))), which appears as equation number 205 (4 Parameter Logistic Model or Sigmoidal Dose-Response Model) in XLFit. Default constraints were used for each Parameter. IC50 was defined as the compound concentration at which 50% of enzyme activity was inhibited when compared to the no-compound control.
In Table 2, *** represent average IC50≤5 nM, ** represents average IC50 in the range of 5-20 nM, and * represents average IC50 in the range of ≥20 nM, where the designations were made solely based on the average value without taking into account of the standard deviations.

human DPP1 enzyme = human DPP1 enzyme (Homo sapiens, UniProt P53634); assay: Human DPP1 Enzyme IC50 Assay; type: biochemical; design: was first proteolytically processed into its mature form using recombinant human cathepsin L; purchased R&D Systems; conditions: activated recombinant human DPP1, 400 μM H-Gly-Arg-AMC, 10 minutes pre-incubation at 37° C., pH 6.0; average of n runs; read-out: Avg. IC50 (Human DPP1 enzyme IC50 value ranges)
Sequence of human DPP1 enzyme (P53634 25-134 limits assumed): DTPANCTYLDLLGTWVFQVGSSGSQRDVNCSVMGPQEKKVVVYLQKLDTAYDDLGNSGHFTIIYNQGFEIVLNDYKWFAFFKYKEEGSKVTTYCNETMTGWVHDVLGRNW
Sequence of human DPP1 enzyme (P53634 231-394 limits assumed): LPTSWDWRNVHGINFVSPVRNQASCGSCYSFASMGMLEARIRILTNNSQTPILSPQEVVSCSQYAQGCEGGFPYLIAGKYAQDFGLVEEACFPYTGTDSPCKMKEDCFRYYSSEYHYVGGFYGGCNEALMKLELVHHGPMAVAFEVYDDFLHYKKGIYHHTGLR
Sequence of human DPP1 enzyme (P53634 395-463 limits assumed): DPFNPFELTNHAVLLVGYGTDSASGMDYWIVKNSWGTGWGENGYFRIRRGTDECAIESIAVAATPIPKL
Summary of the method: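 Recombinant human DPP1, pre-activated with cathepsin L (pH 4.5), was preincubated with compound 10 min at 37 °C in MES pH 6.0, 50 mM NaCl, 5 mM DTT, 1% DMSO. Cleavage of 400 μM (final) H-Gly-Arg-AMC followed by fluorescence (350/450 nm) over 90 min at 37 °C; IC50 from four-parameter logistic fit versus no-compound control.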

DPP1 in HL-60 cells = DPP1 in HL-60 cells (Homo sapiens, UniProt P53634); assay: DPP1 Cell IC50 assay; type: cell-based; design: host or cells: HL-60 cells; conditions: 60 min pre-incubation, H-Gly-Phe-AFC substrate, average of n runs, read-out: Avg. IC50 (DPP1 Cell IC50 value ranges)
Sequence of DPP1 in HL-60 cells (P53634 25-463): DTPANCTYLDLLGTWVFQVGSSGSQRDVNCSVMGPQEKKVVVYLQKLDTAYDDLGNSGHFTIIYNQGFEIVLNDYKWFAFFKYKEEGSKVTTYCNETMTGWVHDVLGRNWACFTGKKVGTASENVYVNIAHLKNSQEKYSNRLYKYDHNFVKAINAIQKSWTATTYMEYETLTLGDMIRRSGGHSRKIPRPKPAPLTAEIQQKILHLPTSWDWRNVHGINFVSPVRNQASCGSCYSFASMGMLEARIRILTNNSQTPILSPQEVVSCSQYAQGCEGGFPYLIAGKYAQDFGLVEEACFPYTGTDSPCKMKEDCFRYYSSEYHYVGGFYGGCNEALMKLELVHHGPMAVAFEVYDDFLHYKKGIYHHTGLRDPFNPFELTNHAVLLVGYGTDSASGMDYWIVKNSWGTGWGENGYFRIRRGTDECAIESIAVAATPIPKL
Summary of the method: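 HL-60 cells in PBS (5×10^5 live cells per mL) pre-incubated with compound (0.5% DMSO) 60 min at 37° C, 5% CO2, then H-Gly-Phe-AFC substrate (500 μM stock) added for 30 min. Fluorescence at 400/505 nm; % inhibition vs vehicle wells, IC50 from four-parameter logistic fit.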

Compound | IC50 (active mouse DPP1 enzyme) [nM] | IC50 (human DPP1 enzyme) [nM] | IC50 (DPP1 in HL-60 cells)
CN1CCN(S(=O)(=O)c2ccc(-c3ccc(C[C@@H](C#N)NC(=O)[C@@H]4CNCCCO4)cc3)cc2)CC1 [Compound 20, (2S)—N-[(1S)-1-cyano-2-[4′-(4-methylpiperazin-1-ylsulfonyl)-[1,1′-biphenyl]-4-yl]ethyl]-1,4-oxazepane-2-carboxamide] | > 20 | > 15 | > 2.5 nM
N#CC(Cc1cc2c(cc1F)-c1ccc(F)cc1CO2)NC(=O)[C@@H]1CNCCCCO1 (mixture of isomers) [Compound B16, (2S)—N-(1-cyano-2-{2,8-difluoro-6H-benzo[c]chromen-3-yl}ethyl)-1,4-oxazocane-2-carboxamide] | > 20 | > 15 | > 2.5 nM
N#Cc1ccc(-c2ccc(C[C@@H](C#N)NC(=O)[C@@H]3CNCCCO3)cc2)cc1C(F)(F)F [Compound 7, (2S)—N-[(1S)-1-cyano-2-[4′-cyano-3′-(trifluoromethyl)-[1,1′-biphenyl]-4-yl]ethyl]-1,4-oxazepane-2-carboxamide] | > 20 | > 15 | > 2.5 nM
CN1CCC(n2ncc3ccc(-c4ccc(C[C@@H](C#N)NC(=O)[C@@H]5CNCCCO5)c(F)c4)cc32)CC1 [Compound A3, (2S)—N-[(1S)-1-cyano-2-{2-fluoro-4-[1-(1-methylpiperidin-4-yl)indazol-6-yl]phenyl}ethyl]-1,4-oxazepane-2-carboxamide] | > 20 | 5 to 15 | > 2.5 nM
CN1CCN(Cc2ccc(-c3ccc(C[C@@H](C#N)NC(=O)[C@@H]4CNCCCO4)cc3)cc2)CC1 [Compound 9, (2S)—N-[(1S)-1-cyano-2-{4′-[(4-methylpiperazin-1-yl)methyl]-[1,1′-biphenyl]-4-yl}ethyl]-1,4-oxazepane-2-carboxamide] | > 20 | > 15 | > 2.5 nM
Cc1cn2cc(-c3ccc(C[C@@H](C#N)NC(=O)[C@@H]4CNCCCCO4)cc3)cc2c(C)n1 [Compound A27, (2S)—N-[(1S)-1-cyano-2-(4-{1,3-dimethylpyrrolo[1,2-a]pyrazin-7-yl}phenyl)ethyl]-1,4-oxazocane-2-carboxamide] | > 20 | > 15 | > 2.5 nM and 1 to 2.5 nM
CN1CCC2(CC1)OC(=O)c1ccc(-c3ccc(C[C@@H](C#N)NC(=O)[C@@H]4CNCCCO4)cc3)cc12 [Compound 14, (2S)—N-[(1S)-1-cyano-2-(4-{1′-methyl-3-oxospiro[2-benzofuran-1,4′-piperidin]-6-yl}phenyl)ethyl]-1,4-oxazepane-2-carboxamide] | 5 to 20 | 5 to 15 | > 2.5 nM
CN1C(=O)C2(CCCN(C3COC3)C2)c2cc(-c3ccc(C[C@@H](C#N)NC(=O)[C@@H]4CNCCCO4)cc3)ccc21 (stereo partly drawn) [Compound 28, (2S)—N-[(1S)-1-cyano-2-{4-[1-methyl-1′-(oxetan-3-yl)-2-oxospiro[indole-3,3′-piperidin]-5-yl]phenyl}ethyl]-1,4-oxazepane-2-carboxamide] | > 20 | > 15 | > 2.5 nM
Cc1cn2cc(-c3ccc(C[C@@H](C#N)NC(=O)[C@@H]4CNCCCO4)cc3)cc2c(C)n1 [Compound A8, (2S)—N-[(1S)-1-cyano-2-(4-{1,3-dimethylpyrrolo[1,2-a]pyrazin-7-yl}phenyl)ethyl]-1,4-oxazepane-2-carboxamide] | > 20 | > 15 | > 2.5 nM
N#C[C@H](Cc1ccc(-c2ccc(C(F)(F)F)cc2)cc1)NC(=O)[C@@H]1CNCCCO1 [Compound 12, (2S)—N-[(1S)-1-cyano-2-[4′-(trifluoromethyl)-[1,1′-biphenyl]-4-yl]ethyl]-1,4-oxazepane-2-carboxamide] | > 20 | > 15 | > 2.5 nM
N#C[C@H](Cc1ccc(-c2ccc3c(c2)CCNC3=O)cc1)NC(=O)[C@@H]1CNCCCO1 [Compound A2, (2S)—N-[(1S)-1-cyano-2-[4-(1-oxo-3,4-dihydro-2H-isoquinolin-6-yl)phenyl]ethyl]-1,4-oxazepane-2-carboxamide] | > 20 | > 15 | > 2.5 nM
